What was measured:
corn [1] = test: Test Example 1: foliage treatment, upland pot test; assay type: in vivo, Zea mays L.; conditions: crop, active ingredient 500 g/ha, observed 18th to 23rd day, 0 = non-treated, 100 = complete kill
Excerpt: (§1) Upland field soil was put into a 1/170,000 ha pot, and seed of various plants were sown. Then, when the plants reached predetermined leaf stages ((1) barnyardgrass: 1.3 to 2.8 leaf stages, (2) crabgrass: 1.0 to 2.8 leaf stages, (3) green foxtail: 1.3 to 2.6 leaf stages, (4) redroot pigweed: 0.1 to 1.2 leaf stages, (5) prickly sida: 0.1 to 1.2 leaf stages, (6) velvetleaf: 0.1 to 1.2 leaf stages, (7) tall morningglory: 0.1 to 1.5 leaf stages, (8) rice: 1.2 to 2.6 leaf stages, (9) wheat: 1.3 to 2.4 leaf stages, (10) corn, 2.1 to 3.2 leaf stages, (11) soybean: 0.1 to 0.4 leaf stage), a wettable powder or emulsifiable concentrate having the compound of the present invention formulated in accordance with a usual formulation method, was weighed so that the active ingredient would be a predetermined amount, and diluted with water in an amount of 500 L/ha. To the diluted solution, 0.1% (v/v) of agricultural spreader was added. The herbicide thus adjusted was applied by a small size sprayer for foliage treatment. On the 18th to 23rd days after the application of the herbicide, the growth of the respective plants was visually observed, and the herbicidal effects were evaluated by the growth controlling degrees (%) ranging from 0 (equivalent to the non-treated plot) to 100 (complete kill), whereby the results shown in Table 3, were obtained.

japanese ribbon wapato = test: Test Example 3: paddy pot test, application under submerged conditions; assay type: in vivo, Sagittaria pygniaea; conditions: submerged application at primary leaf stage, visually observed 14 days after application, 0 = non-treated, 100 = complete kill
Method in brief: (§2)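 Seeds were sown in flooded paddy soil (0.5–1 cm water), wapato tubers were planted 1–2 days later, and water was then held at 3–4 cm. Diluted wettable powder or emulsifiable concentrate was pipetted into the water at the 0.5 leaf or primary leaf stage. Growth control was visually scored at 14 days (0–100%).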

green foxtail [2] = test: Test Example 1: foliage treatment, upland pot test; assay type: in vivo, Setaria viridis L.; conditions: active ingredient 500 g/ha, observed 18th to 23rd day, 0 = non-treated, 100 = complete kill
Excerpt: as §1

rice [3] = test: Test Example 1: foliage treatment, upland pot test; assay type: in vivo, Oryza sativa L.; conditions: crop, active ingredient 500 g/ha, observed 18th to 23rd day, 0 = non-treated, 100 = complete kill
Excerpt: as §1

prickly sida [4] = test: Test Example 1: foliage treatment, upland pot test; assay type: in vivo, Sida spinosa L.; conditions: active ingredient 500 g/ha, observed 18th to 23rd day, 0 = non-treated, 100 = complete kill
Excerpt: as §1

barnyardgrass [5] = test: Test Example 3: paddy pot test, application under submerged conditions; assay type: in vivo, Echinochloa crus-galli L.; conditions: submerged application at 0.5 leaf stage, visually observed 14 days after application, 0 = non-treated, 100 = complete kill
Method in brief: as §2

rice (var. Nihonbare) = test: Test Example 3: paddy pot test, transplanted rice; assay type: in vivo, Oryza sativa L.; conditions: applied 4th day after transplantation, visually observed 21st day after application, 0 = non-treated, 100 = complete kill
Method in brief: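 Rice (2-leaf stage) was transplanted 3 cm deep into puddled, leveled paddy soil under 3–4 cm flooding. On day 4 after transplanting, diluted wettable powder or emulsifiable concentrate was pipetted onto the water at a predetermined active-ingredient dose. Growth control (0 = untreated, 100 = complete kill) was scored visually 21 days later.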

velvetleaf [6] = test: Test Example 1: foliage treatment, upland pot test; assay type: in vivo, Abutilon theophrasti MEDIC.; conditions: active ingredient 500 g/ha, observed 18th to 23rd day, 0 = non-treated, 100 = complete kill
Excerpt: as §1

barnyardgrass [7] = test: Test Example 1: foliage treatment, upland pot test; assay type: in vivo, Echinochloa crus-galli L.; conditions: active ingredient 500 g/ha, observed 18th to 23rd day, 0 = non-treated, 100 = complete kill
Excerpt: as §1

redroot pigweed [8] = test: Test Example 1: foliage treatment, upland pot test; assay type: in vivo, Amaranthus retroflexus L.; conditions: active ingredient 500 g/ha, observed 18th to 23rd day, 0 = non-treated, 100 = complete kill
Excerpt: as §1

japanese bulrush = test: Test Example 3: paddy pot test, application under submerged conditions; assay type: in vivo, Scirpus juncoides; conditions: submerged application at 0.5 leaf stage, visually observed 14 days after application, 0 = non-treated, 100 = complete kill
Method in brief: as §2

crabgrass [9] = test: Test Example 1: foliage treatment, upland pot test; assay type: in vivo, Digitaria sanguinalis L.; conditions: active ingredient 500 g/ha, observed 18th to 23rd day, 0 = non-treated, 100 = complete kill
Excerpt: as §1

soybean [10] = test: Test Example 1: foliage treatment, upland pot test; assay type: in vivo, Glycine max Merr.; conditions: crop, active ingredient 500 g/ha, observed 18th to 23rd day, 0 = non-treated, 100 = complete kill
Excerpt: as §1

green foxtail [11] = test: Test Example 2: soil surface treatment, upland pot test; assay type: in vivo, Setaria viridis L.; conditions: active ingredient 500 g/ha, observed 20th to 28th day
Method in brief: (§3)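 Sowing, then next-day soil-surface spray of formulated test compound (fixed a.i. amount, 1,500 L/ha spray volume); visual evaluation of growth inhibition, 0–100%, three to four weeks (days 20–28) after application.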

crabgrass [12] = test: as above; assay type: in vivo, Digitaria sanguinalis L.; conditions: active ingredient 500 g/ha, observed 20th to 28th day
Method in brief: as §3

soybean [13] = test: as above; assay type: in vivo, Glycine max Merr.; conditions: active ingredient 500 g/ha, observed 20th to 28th day
Method in brief: as §3

barnyardgrass [14] = test: as above; assay type: in vivo, Echinochloa crus-galli L.; conditions: active ingredient 500 g/ha, observed 20th to 28th day
Method in brief: as §3

prickly sida [15] = test: as above; assay type: in vivo, Sida spinosa L.; conditions: active ingredient 500 g/ha, observed 20th to 28th day
Method in brief: as §3

velvetleaf [16] = test: as above; assay type: in vivo, Abutilon theophrasti MEDIC.; conditions: active ingredient 500 g/ha, observed 20th to 28th day
Method in brief: as §3

redroot pigweed [17] = test: as above; assay type: in vivo, Amaranthus retroflexus L.; conditions: active ingredient 500 g/ha, observed 20th to 28th day
Method in brief: as §3

corn [18] = test: as above; assay type: in vivo, Zea mays L.; conditions: active ingredient 500 g/ha, observed 20th to 28th day
Method in brief: as §3

rice [19] = test: as above; assay type: in vivo, Oryza sativa L.; conditions: active ingredient 500 g/ha, observed 20th to 28th day
Method in brief: as §3

| SMILES | Growth controlling degree (%) Corn (corn [1]) | Growth controlling degree (%) Japanese ribbon wapato (japanese ribbon wapato; active ingredient 250 g/ha) | Growth controlling degree (%) Green foxtail (green foxtail [2]) | Growth controlling degree (%) Rice (rice [3]) | Growth controlling degree (%) Prickly sida (prickly sida [4]) | Growth controlling degree (%) Barnyardgrass (barnyardgrass [5]; active ingredient 250 g/ha) | Growth controlling degree (%) Rice (rice (var. Nihonbare); active ingredient 250 g/ha) | Growth controlling degree (%) Velvetleaf (velvetleaf [6]) | Growth controlling degree (%) Barnyardgrass (barnyardgrass [7]) | Growth controlling degree (%) Redroot pigweed (redroot pigweed [8]) | Growth controlling degree (%) Japanese bulrush (japanese bulrush; active ingredient 250 g/ha) | Growth controlling degree (%) Crabgrass (crabgrass [9]) | Growth controlling degree (%) Soybean (soybean [10]) | Growth controlling degree (%) Green foxtail (green foxtail [11]) | Growth controlling degree (%) Crabgrass (crabgrass [12]) | Growth controlling degree (%) Soyabean (soybean [13]) | Growth controlling degree (%) Barnyardgrass (barnyardgrass [14]) | Growth controlling degree (%) Velvetleaf (velvetleaf [16]) | Growth controlling degree (%) Corn (corn [18]) | other results |
| --- | --- | --- | --- | --- | --- | --- | --- | --- | --- | --- | --- | --- | --- | --- | --- | --- | --- | --- | --- | --- |
| CC(C)C(c1cnccc1C(F)(F)F)N(C)C(=O)Cc1ccc(C#N)cc1 (racemic) [I-114] | 60% | 95% | 70% | 30% | 80% | 100% | 30% | 70% | 80% | 60% | 95% | 80% | 70% |  |  |  |  |  |  |  |
| CC(C)C(c1cnccc1C(F)(F)F)N(C)C(=O)Cc1ccc(Cl)c(Cl)c1 (stereo not shown) [I-28] | 0% | 10% | 60% | 0% | 70% | 100% | 0% | 90% | 10% | 80% | 70% | 80% | 60% | 70% | 80% | 0% | 70% | 50% | 0% | Growth controlling degree (%) Prickly sida (prickly sida [15]): 30%; Growth controlling degree (%) Redroot pigweed (redroot pigweed [17]): 70% |
| CC(C)C(c1cnccc1C(F)(F)F)N(C)C(=O)Cc1ccccc1[N+](=O)[O-] (stereo not shown) [I-39] | 10% | 85% | 60% | 10% | 90% | 100% | 10% |  | 50% | 80% | 95% | 70% | 40% | 70% | 100% | 50% | 100% | 30% | 40% | Growth controlling degree (%) Rice (rice [19]): 10%; Growth controlling degree (%) Prickly sida (prickly sida [15]): 90%; Growth controlling degree (%) Redroot pigweed (redroot pigweed [17]): 80% |
| CCOC(=O)N(C)C(c1cnccc1C(F)(F)F)c1cccc2ccccc12 (stereo not shown) [I-54] | 50% |  | 50% | 30% | 90% |  |  | 95% | 50% | 80% |  | 95% | 50% |  |  |  |  |  |  | Growth controlling degree (%) Japanese ribbon wapato (japanese ribbon wapato; active ingredient 500 g/ha): 0%; Growth controlling degree (%) Barnyardgrass (barnyardgrass [5]; active ingredient 500 g/ha): 100%; Growth controlling degree (%) Rice (rice (var. Nihonbare); active ingredient 500 g/ha): 20%; Growth controlling degree (%) Japanese bulrush (japanese bulrush; active ingredient 500 g/ha): 70% |
| CC(C)C(c1cnccc1Cl)N(C)C(=O)Cc1cccc(C(F)(F)F)c1 (stereo not shown) [I-68] | 0% |  | 10% | 0% | 70% |  |  | 80% | 0% | 70% |  | 60% | 10% |  |  |  |  |  |  | Growth controlling degree (%) Japanese ribbon wapato (japanese ribbon wapato; active ingredient 125 g/ha): 50%; Growth controlling degree (%) Barnyardgrass (barnyardgrass [5]; active ingredient 125 g/ha): 95%; Growth controlling degree (%) Rice (rice (var. Nihonbare); active ingredient 125 g/ha): 10%; Growth controlling degree (%) Japanese bulrush (japanese bulrush; active ingredient 125 g/ha): 70% |
| CC(C)C(c1cnccc1Cl)N(C)C(=O)Cc1cccc(F)c1F (stereo not shown) [I-72] | 40% |  | 10% |  | 60% |  |  | 85% | 0% | 60% |  | 70% | 20% | 60% | 70% | 0% | 80% | 0% | 0% | Growth controlling degree (%) Japanese ribbon wapato (japanese ribbon wapato; active ingredient 125 g/ha): 50%; Growth controlling degree (%) Barnyardgrass (barnyardgrass [5]; active ingredient 125 g/ha): 90%; Growth controlling degree (%) Rice (rice (var. Nihonbare); active ingredient 125 g/ha): 0%; Growth controlling degree (%) Rice (rice [19]): 0%; Growth controlling degree (%) Japanese bulrush (japanese bulrush; active ingredient 125 g/ha): 70% |
| CC(Oc1ccccc1)C(=O)N(C)C(c1cnccc1C(F)(F)F)C(C)C (stereo not shown) [I-119, N-methyl-N-[2-methyl-1-(4-trifluoromethylpyridin-3-yl)propyl]2-phenoxypropionamide] | 10% |  | 50% | 20% | 70% |  |  | 10% | 60% | 50% |  | 40% | 60% |  |  |  |  |  |  | Growth controlling degree (%) Barnyardgrass (barnyardgrass [5]; active ingredient 500 g/ha): 98%; Growth controlling degree (%) Rice (rice (var. Nihonbare); active ingredient 500 g/ha): 20%; Growth controlling degree (%) Japanese bulrush (japanese bulrush; active ingredient 500 g/ha): 100% |

Source: patent US20050239656A1, “Pyridine compounds or salts thereof and herbicides containing the same” (priority 2002, published 2005)
